Several values for one entry are separate records, joined by “and”; a condition that tells them apart may be missing. Identical values can stand only once.
Details: Liquid, Hot wire method

CC(C)OC(C)C [diisopropyl ether]
Details	thermal conductivity
235.46 K, 100 kPa	0.1259 W/m/K
235.54 K, 100 kPa	0.1258 W/m/K
236.06 K, 100 kPa	0.1259 W/m/K
236.15 K, 30600 kPa	0.1369 W/m/K
236.25 K, 5000 kPa	0.128 W/m/K
236.29 K, 10100 kPa	0.13 W/m/K
236.33 K, 5000 kPa	0.1275 W/m/K
236.44 K, 20200 kPa	0.1331 W/m/K
236.45 K, 20300 kPa	0.1337 W/m/K
236.53 K, 29900 kPa	0.1364 W/m/K
236.67 K, 5000 kPa	0.1277 W/m/K
236.7 K, 10200 kPa	0.1305 W/m/K
236.8 K, 20300 kPa	0.1337 W/m/K
236.92 K, 30000 kPa	0.1363 W/m/K
237.15 K, 10200 kPa	0.1302 W/m/K
254.4 K, 20400 kPa	0.1276 W/m/K
254.47 K, 30400 kPa	0.1314 W/m/K
254.66 K, 5100 kPa	0.122 W/m/K
254.73 K, 100 kPa	0.1201 W/m/K
254.74 K, 10000 kPa	0.1238 W/m/K
254.76 K, 29500 kPa	0.1312 W/m/K
254.86 K, 10200 kPa	0.1241 W/m/K
254.89 K, 5300 kPa	0.1223 W/m/K
254.9 K, 20100 kPa	0.128 W/m/K
255.08 K, 100 kPa	0.1205 W/m/K
255.13 K, 10100 kPa	0.1236 W/m/K
255.14 K, 5100 kPa	0.1221 W/m/K
255.26 K, 100 kPa	0.1199 W/m/K
255.58 K, 30100 kPa	0.1315 W/m/K
255.61 K, 19900 kPa	0.1285 W/m/K
274.6 K, 30000 kPa	0.1274 W/m/K
274.72 K, 10100 kPa	0.1177 W/m/K
274.86 K, 29900 kPa	0.1269 W/m/K
274.89 K, 20000 kPa	0.122 W/m/K
274.95 K, 5100 kPa	0.1154 W/m/K
275 K, 100 kPa	0.1129 W/m/K
275.02 K, 10000 kPa	0.1178 W/m/K
275.17 K, 30100 kPa	0.1271 W/m/K
275.19 K, 5000 kPa	0.115 W/m/K
275.25 K, 10000 kPa	0.1175 W/m/K
275.3 K, 100 kPa	0.1135 W/m/K
275.51 K, 20100 kPa	0.1218 W/m/K
275.6 K, 5000 kPa	0.1152 W/m/K
275.91 K, 100 kPa	0.1131 W/m/K
276.04 K, 20100 kPa	0.1219 W/m/K
294.58 K, 100 kPa	0.1073 W/m/K
294.64 K, 30100 kPa	0.1197 W/m/K
294.65 K, 10000 kPa	0.1118 W/m/K
294.95 K, 5000 kPa	0.1089 W/m/K
294.98 K, 10000 kPa	0.1115 W/m/K
295.03 K, 100 kPa	0.1071 W/m/K
295.13 K, 20100 kPa	0.1161 W/m/K
295.14 K, 30100 kPa	0.1199 W/m/K
295.27 K, 30000 kPa	0.1198 W/m/K
295.32 K, 10100 kPa	0.1111 W/m/K
295.35 K, 5000 kPa	0.1085 W/m/K
295.6 K, 20100 kPa	0.116 W/m/K
295.7 K, 100 kPa	0.1066 W/m/K
295.82 K, 5000 kPa	0.1087 W/m/K
296.18 K, 20100 kPa	0.1159 W/m/K
314.96 K, 30000 kPa	0.1145 W/m/K
315.03 K, 5000 kPa	0.1027 W/m/K
315.07 K, 20000 kPa	0.1105 W/m/K
315.13 K, 100 kPa	0.0993 W/m/K
315.24 K, 30000 kPa	0.1144 W/m/K
315.26 K, 20000 kPa	0.1099 W/m/K
315.35 K, 10000 kPa	0.105 W/m/K
315.39 K, 5000 kPa	0.1023 W/m/K
315.48 K, 100 kPa	0.0996 W/m/K
315.71 K, 10000 kPa	0.1054 W/m/K
315.73 K, 5100 kPa	0.1027 W/m/K
315.76 K, 20000 kPa	0.1104 W/m/K
315.88 K, 100 kPa	0.0994 W/m/K
315.98 K, 30000 kPa	0.1144 W/m/K
316.26 K, 10000 kPa	0.105 W/m/K
334.99 K, 10100 kPa	0.0998 W/m/K
335.01 K, 5400 kPa	0.0959 W/m/K
335.11 K, 20000 kPa	0.1038 W/m/K
335.23 K, 100 kPa	0.0935 W/m/K
335.29 K, 29900 kPa	0.1093 W/m/K
335.32 K, 10100 kPa	0.0995 W/m/K
335.46 K, 100 kPa	0.0932 W/m/K
335.51 K, 30200 kPa	0.1094 W/m/K
335.68 K, 19700 kPa	0.1043 W/m/K
335.72 K, 30000 kPa	0.1096 W/m/K
335.84 K, 5000 kPa	0.096 W/m/K
335.84 K, 10100 kPa	0.0995 W/m/K
335.94 K, 100 kPa	0.0931 W/m/K
336.31 K, 20100 kPa	0.1042 W/m/K
336.37 K, 5200 kPa	0.0959 W/m/K
354.72 K, 29900 kPa	0.106 W/m/K and 0.1051 W/m/K
354.85 K, 19700 kPa	0.1006 W/m/K
354.97 K, 5000 kPa	0.0913 W/m/K
354.97 K, 19800 kPa	0.1 W/m/K
355.23 K, 10100 kPa	0.0944 W/m/K
355.29 K, 300 kPa	0.0865 W/m/K
355.33 K, 10100 kPa	0.0944 W/m/K
355.45 K, 5000 kPa	0.0916 W/m/K
355.47 K, 20100 kPa	0.1001 W/m/K
355.56 K, 5000 kPa	0.091 W/m/K
355.66 K, 300 kPa	0.0869 W/m/K
355.87 K, 10000 kPa	0.094 W/m/K
356.04 K, 300 kPa	0.0866 W/m/K
356.04 K, 29900 kPa	0.1056 W/m/K
374.75 K, 30000 kPa	0.1021 W/m/K
374.95 K, 29800 kPa	0.1021 W/m/K
375.12 K, 20000 kPa	0.0959 W/m/K
375.24 K, 400 kPa	0.0813 W/m/K
375.25 K, 10000 kPa	0.0893 W/m/K
375.4 K, 5100 kPa	0.0858 W/m/K
375.47 K, 400 kPa	0.0812 W/m/K
375.55 K, 30300 kPa	0.1026 W/m/K
375.57 K, 20000 kPa	0.0957 W/m/K
375.61 K, 10000 kPa	0.0889 W/m/K
375.75 K, 5100 kPa	0.0853 W/m/K
375.87 K, 400 kPa	0.0816 W/m/K
376.05 K, 20000 kPa	0.0955 W/m/K
376.23 K, 10000 kPa	0.089 W/m/K
376.26 K, 5100 kPa	0.0854 W/m/K

— the NIST ThermoML archive (doi:10.1021/je900615b)
